Assay results taken from patent US11052092B2, “N-{[2-(piperidin-1-yl)phenyl](phenyl)methyl}-2-(3-oxo-3,4-dihydro-2H-1,4-benzoxazin-7-yl)acetamide derivatives and related compounds as ROR-gamma modulators for treating autoimmune diseases” (Genfit, priority 2017, dated 2021).

Tests used:
[1] = target: T1, RORγt ligand-binding domain (RORγt-LBD) (Homo sapiens, UniProt P51449); assay: Time-resolved FRET (TR-FRET) RORγt coactivator assay; settings: GST-RORγ-LBD, biotinylated RIP140 peptide, 2 hours at room temperature
T1 construct: 20 nM recombinantly expressed RORγ-LBD fused to GST
T1 sequence (P51449 269-508 limits assumed): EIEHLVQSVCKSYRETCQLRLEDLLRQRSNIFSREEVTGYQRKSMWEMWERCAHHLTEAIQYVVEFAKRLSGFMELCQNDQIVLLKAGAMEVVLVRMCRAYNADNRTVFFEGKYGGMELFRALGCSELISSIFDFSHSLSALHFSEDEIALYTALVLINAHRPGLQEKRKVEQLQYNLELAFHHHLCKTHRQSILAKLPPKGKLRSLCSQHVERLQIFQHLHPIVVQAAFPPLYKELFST
In short: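 GST-tagged RORγt-LBD (20 nM) with 30 nM biotinylated RIP140-derived peptide, streptavidin-terbium and d2 anti-GST in CHAPS buffer (1 mM DTT, 2 mM EDTA, 0.1% BSA), 1% DMSO. Compounds at 0.3 nM–30 μM final, equilibrated 2 h, room temperature, dark. Coactivator displacement lowers the TR-FRET signal; IC50 (μM) and Emax (%) reported.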

MOG-induced EAE mice = assay: Experimental Autoimmune Encephalomyelitis (EAE) study; format: in vivo, C57BL/6 mice
Description: 8-10 week old, female C57BL/6 mice were purchased from Janvier Lab (St Berthevin, France) and housed for one week before the start of the studies. EAE was induced by immunization with an emulsion of peptide antigen MOG35-55 (Myelin Oligodendrocyte Glycoprotein) ([…], SEQ ID NO: 1) in complete Freund's Adjuvant (CFA), followed by administration of Pertussis Toxin (PTX) in PBS on the day of immunization and day 1 post immunization, following manufacturer recommendation (Hooke, Kit MOG35-55/CFA Emulsion PTX). Animals were treated with drug beginning 2 days before peptide injection. Animals were randomized into groups for treatment by weight, so that the average weight of each group was similar. The groups were segregated by cage. Compounds according to the invention were suspended in Labrafil (M1944 CS) by sonication and animals were dosed twice daily by gavage with 5 mL/kg body weight. The daily doses of Cpd.24 were 30 and 60 mg/kg (b.i.d.) by gavage. […]
Data are expressed as (FIG. 4A) mean (+/−SEM) of clinical score for each group per day and (FIG. 4B). […]
Statistical evaluation of differences between the experimental groups was determined by using two-way Anova followed by a Bonferroni post test. **p<0.005, Vehicle compared with treatments.

IC50 [1]: < 10 nM
Structure (SMILES): Cc1ccc(C(NC(=O)Cc2ccc3c(c2)CC(=O)N3)c2ccc(C)o2)c(N2CCCCC2)c1 (stereo not drawn) [Cpd. 24, N-{[4-methyl-2-(piperidin-1-yl)phenyl](5-methylfuran-2-yl)methyl}-2-(2-oxo-2,3-dihydro-1H-indol-5-yl)acetamide]
clinical disease score (MOG-induced EAE mice; by day 15 and maintained through in vivo protocol duration): Clinical disease score improvement was apparent
onset of EAE (MOG-induced EAE mice; p/os at 60 mg/kg (b.i.d.) for 20 days): delay the onset of EAE
